From patent publication US20220192955A1, “AZOXYSTROBIN EFFICACY IN SCALP HEALTH” (The Procter & Gamble Company, priority 2020, published 2022)
In brackets after ≈: the same amount, converted by molar mass.

Tested on: Malassezia furfur (CBS 7982)
Assay: In vitro evaluation of antifungal potency (MIC)
Assay type: cell-based
Settings: for MIC value, Malassezia furfur / MIC: M. furfur CBS 7982, mDixon medium, 31° C., approximately 72 hours, absorbance at 600 nm; for MIC: Malassezia furfur, CBS7982
Experimental: Malassezia furfur (CBS 7982) is grown for approximately 24 hours in a 250 ml vent cap polycarbonate Erlenmeyer flask containing approximately 100 ml of mDixon medium and 5 ml of a fully grown M. furfur culture prepared using the same conditions as described. The cells are diluted by mixing 2.5 ml of the 24 hour-old culture per 50 ml of mDixon medium. A Versette robot (ThermoFisher Scientific) is used to transfer 292.5 μl of the dilute cells into each well of a Beckman 267007 polypropylene round bottom deep well plate. All compounds are sourced from Sigma Aldrich (St. Louis, Mo.) and prepared as 10 mg/ml in DMSO. A semipermeable aeraseal membrane is applied to the plate which is then be covered with water-soaked cotton batting. The samples are be shaken at 31° C. on a Heidolph Titramax 100 shaker at 1500 rpm for approximately 72 hours. The plates are shaken at 1250 rpm on an Eppendorf MixMate shaker to disperse the cells before transferring 200 μl to a Corning 3596 polystyrene plate. The samples are shaken again at 950 rpm on a MixMate shaker before the absorbance at 600 nm is read using a Molecular Devices SpectraMax plate reader.

Row | Compound | MIC value, Malassezia furfur [ppm] | MIC [µg/mL] | times less potent than azoxystrobin (MIC) (Malassezia furfur MIC ratio) [times]
1 | CNC(=O)/C(=N/OC)c1ccccc1COc1cc(C)ccc1C [Dimoxystrobin, dimoxystrobin] | 7.81 |  | 
2 | CO/N=C(/C1=NOCCO1)c1ccccc1Oc1ncnc(Oc2ccccc2Cl)c1F [Fluoxastrobin, fluoxastrobin] |  | 3.91 (≈ 8.52 µM) | 
3 | CO/N=C(/C(=O)OC)c1ccccc1COc1ccccc1C [Kresoxim-methyl, kresoxim methyl] |  | 15.6 (≈ 49.9 µM) | 
4 | CNC(=O)/C(=N/OC)c1ccccc1CO/N=C(C)/C(=N/OC)C(/C)=N/OC [Orysastrobin, orysastrobin] | 31.25 |  | 64
5 | COC(=O)N(OC)c1ccccc1COc1ccn(-c2ccc(Cl)cc2)n1 [Pyraclastrobin, pyraclostrobin] |  | 1.95 (≈ 5.03 µM) | 
6 | CON=C(C(=O)OC)c1ccccc1CON=C(C)c1cccc(C(F)(F)F)c1 [Trifloxystrobin, trifloxystrobin] |  | 15.6 (≈ 38.3 µM) | 
7 | zinc pyrithione | 3.13 |  | 
